# According to US9732060B2, “Aminotriazine derivative and pharmaceutical composition comprising the same” (Shionogi & Co., Ltd., priority 2013, dated 2017):
# Where two headings read alike, the source gives them in different places.
# Assays:
# [1] = target: Rat P2X3 receptor (Rattus norvegicus (Rat), UniProt P49654); test: Evaluation of rat P2X3 receptor inhibitory activity in the presence of rat serum albumin (RSA); assay type: cell-based; details: read-out: ratP2X3 + RSA IC50
# Description: Rat P2X3 receptor gene (GenBank accession number NM_031075) was expressed in C6BU-1 cell. The C6BU-1 cells were seeded in a 96-well micro titer plate at a concentration of 2500 cells/well and cultured in the medium (7.0% fetal bovine serum, 7.0% horse serum, and 1% antibiotic and antifungal in DMEM) for one day at 37° C. under 5% carbon dioxide atmosphere. The plasmid was transfected into the cells using transfection reagent FuGENE6 (Promega). The transfected cells were cultured in the medium for one day at 37° C. under 5% carbon dioxide atmosphere. The medium was replaced with 4 μM Fluo-4-AM solution (pH 7.5) containing 20 mM HEPES, 137 mM NaCl, 5.27 mM KCl, 0.9 mM MgCl2, 1.26 mM CaCl2, 5.6 mM D-glucose, 2.5 mM probenecid, 10% RSA, and 0.08% Pluronic F-127, and incubated at 37° C. under 5% dioxide carbon atmosphere for one hour. The plate was washed with washing buffer (20 mM HEPES, 137 mM NaCl, 5.27 mM KCl, 0.9 mM MgCl2, 1.26 mM CaCl2, 5.6 mM D-glucose, 2.5 mM probenecid, pH 7.5), and each well was added with 40 μL of this buffer. The plate was placed in High-Throughput Screening System FDSS 3000 (Hamamatsu Photonics K.K.). Measurement of fluorescence intensity by FDSS 3000 was started, and 40 μL of DMSO solutions containing 1% RSA (final concentrations) and different concentrations of the test compound as prepared by dilution with dilution buffer (20 mM HEPES, 137 mM NaCl, 5.27 mM KCl, 0.9 mM MgCl2, 1.26 mM CaCl2, 5.6 mM D-glucose, 2.5 mM probenecid, 0.1% Pluronic F-127, pH 7.5) were dispensed to each well through the built-in automatic dispenser. Five minutes after, 50 nM ATP solution (50 μL) prepared by dilution with the dilution buffer was dispensed through the built-in automatic dispenser, and the measurement of fluorescence intensity was continued for 4 min. For each well, the specific maximum fluorescence intensity was calculated as the ratio of the maximum fluorescence intensity after addition of the ATP solution to the fluorescence intensity at the starting of the measurement. […] FDSS software (Hamamatsu Photonics K.K.) was used for calculation of the specific maximum fluorescence intensity. IC50 was calculated using Microsoft Excel (Microsoft Corporation) and XLfit (idbs Ltd.).
# [2] = target: human P2X3 receptor (Homo sapiens (Human), UniProt P56373); test: Evaluation of human P2X3 receptor inhibitory activity in the presence of human serum albumin (HSA); assay type: cell-based; details: in the presence of 1% HSA (final concentration)
# Sequence of human P2X3 receptor (P56373 whole entry): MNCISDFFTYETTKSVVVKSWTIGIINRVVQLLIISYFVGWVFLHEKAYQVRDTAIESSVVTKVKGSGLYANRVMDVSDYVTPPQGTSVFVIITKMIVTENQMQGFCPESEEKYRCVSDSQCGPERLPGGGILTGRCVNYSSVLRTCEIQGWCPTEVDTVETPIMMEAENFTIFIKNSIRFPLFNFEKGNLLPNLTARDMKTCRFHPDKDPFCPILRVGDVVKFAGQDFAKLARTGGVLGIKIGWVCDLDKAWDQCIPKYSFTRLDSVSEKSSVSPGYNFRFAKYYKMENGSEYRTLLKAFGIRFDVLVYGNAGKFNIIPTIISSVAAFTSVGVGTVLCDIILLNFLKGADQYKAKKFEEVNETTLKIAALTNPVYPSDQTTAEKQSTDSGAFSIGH
# Description: Stably expressing cell line (C6BU-1 cell transfected with human P2X3 receptor gene (GenBank accession number Y07683; was used. The cells were seeded in a 96-well microtiter plate at a concentration of 8000 cells/well and cultured in the medium (7.0% fetal bovine serum, 7.0% horse serum, 1% antibiotic and antifungal, and 2.0% glutamine in DMEM) for one day at 37° C. under 5% carbon dioxide atmosphere. The medium was replaced with 4 μM Fluo-3-AM solution (20 mM HEPES, 137 mM NaCl, 5.37 mM KCl, 0.9 mM MgCl2, 1.26 mM CaCl2, 5.6 mM D-glucose, 2.5 mM probenecid, 0.5% BSA, and 0.04% Pluronic F-127, pH 7.5) and incubated at 37° C. under 5% dioxide carbon atmosphere for one hour. The plate was washed with washing buffer (20 mM HEPES, 137 mM NaCl, 5.27 mM KCl, 0.9 mM MgCl2, 1.26 mM CaCl2, 5.6 mM D-glucose, 2.5 mM probenecid, pH 7.5), and each well was added with 40 μL of this buffer. The plate was placed in High-Throughput Screening System FDSS 3000 (Hamamatsu Photonics K.K.). Measurement of fluorescence intensity by FDSS 3000 was started, and 40 μL of DMSO solutions containing 1% HSA (final concentrations) different concentrations of the test compound as prepared by dilution with dilution buffer (20 mM HEPES, 137 mM NaCl, 5.27 mM KCl, 0.9 mM MgCl2, 1.26 mM CaCl2, 5.6 mM D-glucose, 2.5 mM probenecid, 0.1% Pluronic F-127, pH 7.5) were dispensed to each well through the built-in automatic dispenser. Five minutes after, 50 nM ATP solution (50 μL) prepared by dilution with the dilution buffer was dispensed through the built-in automatic dispenser, and the measurement of fluorescence intensity was continued for 4 min. For each well, the specific maximum fluorescence intensity was calculated as the ratio of the maximum fluorescence intensity after addition of the ATP solution to the fluorescence intensity at the starting of the measurement. […] FDSS software (Hamamatsu Photonics K.K.) was used for calculation of the specific maximum fluorescence intensity. IC50 was calculated using Microsoft Excel (Microsoft Corporation) and XLfit (idbs Ltd.)
# [3] = Pharmacokinetic test (BA, CLtot); assay type: in vivo; details: rat, plasma, SD rats
# Description: • (1) Animals: SD rats were used • (2) Breeding conditions: SD rats were allowed to freely take solid food and sterilized tap water. • (3) Dose and grouping: orally or intravenously administered at a predetermined dose; grouping was as follows (Dose depends on the compound)
# Oral administration: 1 mg/kg (n=2)
# The total body clearance (CLtot) was calculated by dividing the dose by the AUC of the intravenous administration group.
# Sequence of Rat P2X3 receptor (P49654 whole entry): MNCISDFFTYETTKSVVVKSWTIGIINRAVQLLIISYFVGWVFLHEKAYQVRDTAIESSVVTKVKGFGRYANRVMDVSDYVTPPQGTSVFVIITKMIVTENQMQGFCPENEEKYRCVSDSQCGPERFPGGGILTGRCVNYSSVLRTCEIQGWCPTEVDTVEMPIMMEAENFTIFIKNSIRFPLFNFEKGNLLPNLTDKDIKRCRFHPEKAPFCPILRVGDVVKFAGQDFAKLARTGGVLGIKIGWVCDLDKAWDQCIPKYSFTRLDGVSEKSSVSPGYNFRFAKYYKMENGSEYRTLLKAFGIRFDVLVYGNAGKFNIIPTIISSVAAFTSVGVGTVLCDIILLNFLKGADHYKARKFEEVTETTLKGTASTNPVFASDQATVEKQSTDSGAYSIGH
smiles,measurement,setting,value
Cc1ccc(Cn2c(=O)n(C[C@H](C)C(=O)O)c(=O)[nH]/c2=N\c2ccc(Oc3ccc(F)cn3)cc2)cc1 [Compound I-040],IC50,[1],0.009 µM
same,IC50,[2],0.018 µM
same,clearance,[3]; intravenous administration 0.5 mg/kg,28.6 mL/min/kg
same,AUC,"[3]; intravenous administration 0.5 mg/kg, read-out: AUC (iv)",291 ng·h/mL
same,AUC,"[3]; oral administration 1 mg/kg, read-out: AUC (po)",410 ng·h/mL
